# Molecular target: T1, CETP (Homo sapiens, UniProt P11597)
# T1 sequence (P11597 18-493): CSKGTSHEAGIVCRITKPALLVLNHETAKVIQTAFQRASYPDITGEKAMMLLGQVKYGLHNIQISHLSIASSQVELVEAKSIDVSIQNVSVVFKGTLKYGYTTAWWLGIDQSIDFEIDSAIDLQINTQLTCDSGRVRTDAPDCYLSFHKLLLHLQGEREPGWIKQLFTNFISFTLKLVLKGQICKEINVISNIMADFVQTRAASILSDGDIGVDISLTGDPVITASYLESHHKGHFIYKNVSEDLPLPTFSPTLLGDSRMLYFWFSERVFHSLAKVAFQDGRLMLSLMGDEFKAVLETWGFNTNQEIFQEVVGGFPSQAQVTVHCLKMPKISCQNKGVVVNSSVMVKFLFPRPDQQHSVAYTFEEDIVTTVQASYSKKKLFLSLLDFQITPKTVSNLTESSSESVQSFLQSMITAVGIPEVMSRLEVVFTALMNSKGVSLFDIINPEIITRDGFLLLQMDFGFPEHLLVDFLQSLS
# Test: Assay of CETP inhibition using purified components (reconstituted buffer assay): transfer of [3H]CE from HDL to LDL
# Type: biochemical
# Set-up: made in house; host or cells: CHO cells (serum-free conditioned medium)
# Conditions: 2 hours at 37°C
# Procedure: ASSAY OF CETP INHIBITION USING PURIFIED COMPONENTS (RECONSTITUTED BUFFER ASSAY)
# The ability of compounds to inhibit CETP activity was assessed using an in vitro assay that measured the rate of transfer of radiolabeled cholesteryl ester ([^3H]CE) from HDL donor particles to LDL acceptor particles. Details of the assay are provided by Glenn, K. C. et al. (Glenn and Melton, "Quantification of Cholesteryl Ester Transfer Protein (CETP): A) CETP Activity and B) Immunochemical Assay of CETP Protein," Meth. Enzymol., 263, 339-351 (1996)). Human recombinant CETP can be obtained from the serum-free conditioned medium of CHO cells transfected with a cDNA for CETP and purified as described by Wang, S. et al. (J. Biol. Chem. 267, 17487-17490 (1992)). To measure CETP activity, [^3H]CE-labeled-HDL, LDL, CETP and assay buffer (50 mM tris(hydroxymethyl)aminomethane, pH 7.4; 150 mM sodium chloride; 2 mM ethylenediamine-tetraacetic acid (EDTA); 1% bovine serum albumin) were incubated in a final volume of 200 µL, for 2 hours at 37°C in 96 well plates. […] The inhibitors were then diluted 1:1 with CETP in assay buffer, and then 25 µL of that solution was mixed with 175 µL of lipoprotein pool for assay. Following incubation, LDL was differentially precipitated by the addition of 50 µL of 1% (w/v) dextran sulfate/0.5 M magnesium chloride, mixed by vortex, and incubated at room temperature for 10 minutes. A potion of the solution (200 µL) was transferred to a filter plate (Millipore). After filtration, the radioactivity present in the precipitated LDL was measured by liquid scintillation counting.
# This value was defined as the IC50.
row,SMILES,IC50
1,OC(CN(Cc1cccc(OC(F)(F)C(F)F)c1)c1cccc(OCc2cc(F)cc(C(F)(F)F)c2)c1)C(F)(F)F (stereo not shown) [compound 411],0.25 µM
2,OC(CN(Cc1cccc(OC(F)(F)C(F)F)c1)c1cccc(Oc2cccc(F)c2)c1)C(F)(F)F (stereo not shown) [compound 240],0.27 µM
3,CCOc1cccc(CN(CC(O)C(F)(F)F)c2cccc(Oc3ccc(F)cc3)c2)c1 (stereo not shown) [compound 646],0.77 µM
4,CC(C)(C)c1ccc(COc2cccc(N(Cc3cccc(OC(F)(F)C(F)F)c3)CC(O)C(F)(F)F)c2)cc1 (stereo not shown) [compound 418],2.1 µM
5,OC(CF)CN(Cc1cccc(OC(F)(F)F)c1)Cc1cccc(OC(F)(F)F)c1 (stereo not shown) [compound 697],55 µM
6,Cc1cc(Oc2cccc(N(Cc3cccc(OC(F)(F)C(F)F)c3)CC(O)C(F)(F)F)c2)ccc1F (stereo not shown) [compound 242],0.076 µM
7,OC(COC(F)(F)C(F)F)CN(Cc1cccc(OC(F)(F)C(F)F)c1)c1cccc(Oc2ccc(F)cc2)c1 (stereo not shown) [compound 701],4.5 µM
8,O=C(c1cccc(N(Cc2cccc(OC(F)(F)C(F)F)c2)CC(O)C(F)(F)F)c1)N1CCOCC1 (stereo not shown) [compound 471],50 µM
9,OC(CN(Cc1cccc(SC(F)(F)F)c1)c1cccc(Oc2ccc(F)cc2)c1)C(F)(F)F (stereo not shown) [compound 636],0.39 µM
10,COc1cc(CN(CC(O)C(F)(F)F)c2cccc(OC(F)(F)F)c2)cc(OC)c1 (stereo not shown) [compound 350],50 µM
11,"O=C(OC(CN(C(=O)c1cccc(C(F)(F)F)c1)c1cccc(F)c1)C(F)(F)F)c1cccc(C(F)(F)F)c1 (stereo not shown) [Example 662, 2,2,2-trifluoro-1-[[(3-fluorophenyl)[3-(trifluoromethyl)benzoyl]amino]-methyl]ethyl 3-trifluoromethylbenzoate]",50 µM
12,CCCCOc1ccc(CN(CC(O)C(F)(F)F)c2cccc(OC(F)(F)F)c2)cc1 (stereo not shown) [compound 120],50 µM
13,Oc1cccc(CN(CC(O)C(F)(F)F)c2cccc(Oc3ccc(F)cc3)c2)c1 (stereo not shown) [compound 635],80 µM
14,O=C(c1c(F)c(F)c(F)c(F)c1F)N(CC(O)C(F)(F)F)c1cccc(OC(F)(F)F)c1 (stereo not shown) [compound 343],100 µM
15,OC(CN(Cc1cccc(OC(F)(F)C(F)F)c1)c1cccc(OCc2ccccn2)c1)C(F)(F)F (stereo not shown) [compound 432],1.7 µM
16,CCCOc1cccc(CN(CC(O)C(F)(F)F)c2cccc(Oc3ccc(F)cc3)c2)c1 (stereo not shown) [compound 648],0.83 µM
17,"O=C(O)c1ccc(COc2cccc(N(Cc3cccc(OC(F)(F)C(F)F)c3)CC(O)C(F)(F)F)c2)cc1 (stereo not shown) [EX-435B, 4-[[3-[[[3-(1,1,2,2-tetrafluoroethoxy)phenyl]methyl](3,3,3-trifluoro-2-hydroxypropyl)amino]phenoxy]methyl]benzoic acid]",> 50 µM
18,OC(CN(Cc1cccc(Oc2ccc(Cl)cc2)c1)c1cccc(OC(F)(F)F)c1)C(F)(F)F (stereo not shown) [compound 93],50 µM

# Further lines, results first:
row,IC50,SMILES
1,50 µM,OC(CN(Cc1ccc(C(F)(F)F)cc1)c1ccc(F)c(F)c1)C(F)(F)F (stereo not shown) [compound 22]
2,> 100 µM,OC(CN(Cc1ccccc1C(F)(F)F)c1cccc(F)c1)C(F)(F)F (stereo not shown) [compound 670]
3,> 100 µM,Cc1ccc(N(Cc2cccc(C(F)(F)F)c2)CC(O)C(F)(F)F)cc1 (stereo not shown) [compound 20]
4,100 µM,OC(CN(Cc1ccc(-c2ccccc2)cc1)c1ccc(C(F)(F)F)cc1)C(F)(F)F (stereo not shown) [compound 144]
5,> 100 µM,Cc1ccccc1N(Cc1cccc(C(F)(F)F)c1)CC(O)C(F)(F)F (stereo not shown) [compound 21]
6,4.3 µM,OC(CN(Cc1ccc(C(F)(F)F)cc1)c1cccc(Oc2ccc(F)cc2)c1)C(F)(F)F (stereo not shown) [compound 640]
7,2.5 µM,OC(CN(Cc1cccc(OC(F)(F)C(F)F)c1)c1cccc(-c2ccccc2)c1)C(F)(F)F (stereo not shown) [compound 564]
8,100 µM,COc1cc2c(cc1N(Cc1cccc(OC(F)(F)F)c1)CC(O)C(F)(F)F)oc1ccccc12 (stereo not shown) [compound 698]
9,100 µM,Cc1ccc(CN(CC(O)C(F)(F)F)c2ccc(C(F)(F)F)cc2)cc1 (stereo not shown) [compound 672]
10,> 100 µM,OC(CN(Cc1ccccc1)c1cccc(F)c1)C(F)(F)F (stereo not shown) [compound 10]

# Reference: patent EP1115693B9, “SUBSTITUTED POLYCYCLIC ARYL AND HETEROARYL $i([sequence])-HETEROALKYLAMINES USEFUL FOR INHIBITING CHOLESTERYL ESTER [sequence] PROTEIN ACTIVITY” (Monsanto Company, priority 1998, dated 2000)
